For data set [1] the following is noted: at 25° C., gas/water, cited from earlier work.
For data set [2] the following is noted: measured at 25° C. (Worksafe Australia); cited from earlier work.
Data set [3] can be described thus: Henry's law constant in batch systems from 4° C. to 50° C. It is filed as physicochemical. The protocol:
Difluoromethane was selected as the partitioning tracer, which partitions into water within the solid waste, while helium was selected as the conservative tracer. A key thermodynamic parameter necessary for interpretation of data from a PGTT is the Henry's law constant of the partitioning tracer. Laboratory tests were conducted in batch systems to determine the Henry's law constant for difluoromethane from 4° C. to 50° C., which covers the temperature range observed in our field tests. In addition, batch experiments were also conducted with filter paper wetted to different degrees to assess the ability of PGTT to measure water in small pores and sorbed to solid surfaces.

The nature of data set [4]: Henry's law constant from gas tracer tests in sand column wetted with distilled water. It counts as physicochemical. The settings on record: distilled water at 22.5-24.1° C., six trials, ± 95% confidence interval. An excerpt:
The experimental procedure used to determine KH was similar to that reported in an earlier study (Deeds, N. E.; McKinney, D. C.; Pope, G. A.; Whitely Jr., G. A. Difluoromethane as partitioning tracer to estimate vadose water saturations. Journal of Environmental Engineering 1999, 125, 630-633). A jacketed glass column 60-cm long and 5-cm in diameter (Ace Glass, Inc., Vineland, N.J.) was packed with 50/70 silica sand (d50=0.26 mm, uniformity index=1.186; U.S. Silica, Ill.) underwater using distilled water. The column was positioned vertically, and suction was applied to the bottom of the column to drain water from the porous medium. […]
A water bath and pump were used to recirculate water in the glass jacket surrounding the porous medium to maintain fluid and gas temperatures between 22.5-24.1° C. during the experiments. […] Tracer concentrations in the gas samples were quantified with a gas chromatograph (Model 8610C, SRI Instruments, Torrance, Calif.): tracers were separated using mol-sieve and silica gel packed columns and then detected with a thermal conductivity (helium) or flame ionization detector (difluoromethane). […]
The Henry's law constant was determined in each of the above tests using the tracer breakthrough curves and the known porosity and water saturation for the porous medium. […]

A short description of data set [5]: Henry's law constant from gas tracer tests in sand column wetted with landfill leachate. It counts as physicochemical. The procedure:
Three trials were performed to determine KH for the leachate. The experimental procedures were modified slightly from those described above for distilled water. Here, the column was packed with dry sand, purged with nitrogen, and the leachate was flushed upward in the vertically-mounted column to displace the gas. Nitrogen was then injected into the top of the column to force the mobile water out of the column. This procedure allowed the column to be wetted with the leachate while under anaerobic conditions. Between experimental trials anaerobic conditions were maintained in the column to minimize reactions within the leachate that might alter its composition. The temperatures for the leachate tests ranged between 25.5-26.0° C.
The Henry's law constant was determined in each of the above tests using the tracer breakthrough curves and the known porosity and water saturation for the porous medium. Time moment analysis was used to determine the mean tracer velocities; Rf was computed from eq. 1; and using known n and Sw, KH was computed from eq. 3.
Three PGTT were conducted with landfill leachate to explore the influence of leachate composition on difluoromethane partitioning. The porosity and leachate saturation of the sand column were n=0.41 and Sw=0.17 respectively, while the average interstitial gas velocity used in the tracer tests was 25.2 m/day. […]

For data set [6] the following is noted: clean water, Deeds et al. 1999; cited from earlier work.
The conditions of data set [7]: for every 10° C. increase in temperature; cited from earlier work.

The structures appear in SMILES notation. Read-outs that look alike come from different tables or passages of the source. Marks after values point to notes of the source that are not given here.

For `[He]` [Helium], the “KH (dimensionless Henry's law constant)” value in data set [1] is listed as 106^a; in data set [1] (listed as helium) it was “≈ 100”.
With `FCF` [Difluoromethane], the “Log n-Octanol/Water Partition Coefficient” value in data set [2] is 0.21^c. Further, the “KH (Henry's law constant)” value in data set [3] (at 4° C.) was 0.34; in data set [3] (at 50° C.), 0.99; in data set [5] (landfill leachate (Cherry Island Landfill), 25.5-26.0° C., three trials, ± 95% confidence interval) it was 0.57±0.09; in data set [6] it was 0.59. Also, the “KH (dimensionless Henry's law constant)” value in data set [4] is 0.47^b; in data set [4] (listed as difluoromethane) it was 0.47±0.07. Also, in data set [5] (leachate vs distilled water, mean temperature about 2.5° C. higher), the “Increase of KH in leachate relative to distilled water” value turned out to be 20%.
`CF` [fluoromethane]: the “Increase in KH with temperature” value in data set [7] is recorded as “approximately 20%”.

Values taken from patent US20070056361A1, “Partitioning gas tracer tests” (UNIVERSITY OF DELAWARE office of the Vice Provost for …, priority 2003, published 2007).
